According to US20240366602A1, “COMBINATION THERAPY OF APELIN RECEPTOR AGONIST AND GLP-1 RECEPTOR AGONIST FOR TREATING A DISEASE OR CONDITION ASSOCIATED WITH WEIGHT GAIN” (BioAge Labs, Inc., priority 2023, published 2024):

Tests used:
[1] = system: healthy older adult humans; assay: BGE-105 in immobilized human muscles, 10 days bed rest (Example 11); format: in vivo; conditions: 200 mg of BGE-105 a day
From the text: Two groups of healthy older adult humans (e.g., n=10 per group) who are moderately active remain in bed continuously for 10 days, except for toileting, and they consume a eucaloric diet providing the recommended dietary allowance for protein (0.8 g/kg of protein per day). […] Measurements before and after bed rest include muscle function and protein synthesis.

[2] = system: aged mice; conditions: aged mice (24-month-old) vs age-matched controls, cited from earlier work
[3] = system: aged mice; conditions: aged mice (18-month-old) first injected with a cardiotoxin; cited from earlier work
[4] = system: healthy volunteers aged≥65 years; assay: Phase 1b Part B (MD) safety; format: in vivo, human
Protocol: (§1) The Safety Analysis Set is used for safety analysis. Subjects is analyzed based on the actual treatment received.
The double-blind, placebo-controlled clinical trial evaluated the safety and pharmacodynamics of BGE-105.

[5] = 9-month oral toxicity study in dogs; format: in vivo; conditions: dog
Protocol: The updated exposure margins considering the highest maximum exposures in rats and dogs are calculated as follows: • Maximum exposure in the rat (male) was in the 14-day IV study and at the 300 mg/kg dose, the AUClast is 1070 μg*hr/mL. • Maximum exposure in dogs occurred at the 300 mg/kg dose in the 9-month oral toxicity study and the AUClast is 1310*μg·hr/mL.

[6] = system: healthy adult subjects; assay: Phase 1 Part A (SAD) safety and tolerability; format: in vivo, human
Protocol: (§2) After a baseline period of 24 hours in the clinic, all subjects receive a LD, 1-hour infusion on Day 1. After a 48-hour wash-out period, in which PK and PK/PD data iscollected, subjects receive a 23-hour infusion (1-hour LD followed by a 22-hour maintenance dose). See FIG. 45 for the different dose levels in each SAD cohort. See e.g., Table 33 below. Part A is double-blinded. The cohorts of Part A is conducted sequentially starting with SAD cohort 1.
On Day 1 for Part A, subjects receive LD, 1-hour infusion. On Day 3, after a 48-hour washout period, subjects then receive a 23-hour infusion (1-hour LD followed by a 22-hour MD). No earlier than 24 hours after the end of infusion, subjects is discharged from the clinic on Day 5 (End of Treatment Period [EOTP]). A treatment protocol for the SAD cohorts of Part A is described below: • a. Predose assessments (vital signs and PK assessments) should be done within 30 min of the start of infusion. • b. Vital signs include diastolic and systolic blood pressure and pulse. In addition, temperature and respiratory rate should be collected on predose Day 1 and EOT Day 5. • c. […] AEs was recorded from the start time of the first BGE-105 or placebo study drug infusion until the end of the subject's participation in the study. […]
as §1

[7] = system: Diet-Induced Obese (DIO) mice; assay: Pilot study of BGE-105 in aged DIO mice treated with semaglutide (Example 1); format: in vivo
From the text: Endpoints and measurements used to assess effects included: • Body Weight, Clinical Evaluation & Body Condition Score; • Group Food Intake, Water Intake; • Fed Glucose; • Body composition by Echo-MRI; • Baseline and endpoint grid hang tests; and • Endpoint tissue harvest.
25-month-old (aged) C57BL/6 female mice were used in this study. Diet for 25-month-old C57BL/6 mice included lean control D12450B (10 kcal % fat), or a diet induced-obesity (DIO) diet D12492 (60 kcal % fat) (Research Diets, Inc.). The study duration was 37 days. Treatment started on Day 0 and ended on Day 35-36.
Semaglutide was purchased from MCE (Cat No. HY-114118/CS-0069903)
Mice from all Groups (1-5) were measured with fed glucose, and body weight and body composition for randomization.
Body weight, group food intake, group water intake, body composition and grid hang tests were measured and monitored during the study.
On the day of necropsy, blood plasma and tissue samples were collected.

[8] = system: immobilized aged mice; conditions: immobilized aged mice (20-months-old), orally dosed, vs control vehicle; cited from earlier work
[9] = system: healthy adult subjects; assay: Phase 1 Part A (SAD) insulin resistance (HOMA-IR); format: in vivo, human; conditions: SAD cohorts 1, 2, 3; Day 3 Predose and Day 4 visits; largest decrease in cohort 3
Protocol: In Part A, of 24 subjects enrolled (3 SAD cohorts, 8 subjects each), a total of at least 12 subjects are ≥65 years of age (≥4 subjects in each cohort). The remaining subjects are ≥18 years old.
Biomarkers including, but not limited to changes in: • Plasma glucose • Plasma insulin • Insulin resistance (HOMA-IR)
as §2
Blood samples (4 mL) for plasma insulin and glucose monitoring are collected in the morning, before breakfast and after fasting overnight at timepoints described previously.
Data is analyzed as change from baseline within each dose cohort and treatment group. Treatment comparisons are made as a linear contrast of all treated compared to all placebo and for each individual dose cohort versus all placebo based on time-matched samples acquired during the 24-hour period on Day −1. P-values are reported uncorrected for multiplicity.

SMILES: COc1cccc(OC)c1-n1c(NS(=O)(=O)[C@@H](C)[C@H](C)c2ncc(C)cn2)nnc1-c1cncc(C)c1 [BGE-105, (2S,3R)—N-(4-(2,6-dimethoxyphenyl)-5-(5-methyl-3-pyridinyl)-4H-1,2,4-triazol-3-yl)-3-(5-methyl-2-pyrimidinyl)-2-butanesulfonamide]
- Muscle atrophy in immobilized human muscles [1]: prevent or attenuate muscle atrophy
- Voluntary motor activity ([2]; p=0.00228): statistically significant increase in voluntary motor activity
- Grip strength ([2]; p=0.04): statistically significant improvement in grip strength
- mRNA transcripts indicative of muscle regeneration [3]: significantly higher levels of several mRNA transcripts which are indicative of muscle regeneration
- Tolerability ([4]; Part B study): well tolerated
- Serious adverse effects ([4]; volunteers≥65 years old, 10 days of bed rest): no serious adverse effects
- NOAEL [5]: maximum dose tested
- Serious adverse events ([6]; SAD cohorts Part A): no serious adverse events
- Tolerability ([6]; SAD cohorts, all doses including 240 mg/1440 mg): well tolerated
- Muscle function, grid hang test (latency before mice fell from the grid) ([7]; semaglutide 100 nmol/kg, BGE-105 1.1 mg/mL, combination compared to either agent alone): increased muscle function
- Weight of perigonadal fat at study endpoint ([7]; semaglutide 100 nmol/kg, BGE-105 1.1 mg/mL, combination loss statistically significant): statistically insignificant loss in perigonadal fat
- Quadriceps weight as a percentage of total body weight at study endpoint ([7]; semaglutide 100 nmol/kg, BGE-105 1.1 mg/mL, vs DIO control mice): increased quadricep weight as a percentage of total body weight, but the increases did not achieve statistical significance
- neutrophil gelatinase-associated lipocalin (NGAL) level at study endpoint ([7]; vs DIO control mice): decreased plasma NGAL level
- Muscle atrophy [8]: significantly reduced muscle atrophy
- Percent change from baseline in HOMA-IR [9]: decrease in the percent change from baseline in HOMA-IR
